Test results reported in patent US7939661B2, “Pyridine, quinoline and pyrimidine derivatives” (Hoffman-La Roche Inc., priority 2006, dated 2011).

Target: T1, human subtype 5 somatostatin receptor (Homo sapiens, UniProt P35346)
T1 construct: host or cells: CHO cells, stably transfected; membranes prepared from them
Experiment: radioligand replacement (binding) assay, membranes of CHO cells expressing human SSTR5, 125I-labeled 11-Tyr somatostatin-14 tracer
Conditions: human SSTR5, CHO cell membranes, 0.05 nM 125I-labeled 11-Tyr somatostatin-14, 1 h at rt; Ki from IC50 by Cheng-Prussoff equation
Method: A CHO cell line stably transfected with a plasmid encoding the human subtype 5 somatostatin receptor (GenBank accession number D16827) was obtained from Euroscreen. Cells were cultured and used for binding and functional assays.
Membranes of these cells were prepared by sonication in the presence of protease inhibitors and subsequent fractionating centrifugation. The protein concentration in the membrane preparation was determined using a commercial kit (BCA kit, Pierce, USA). Membranes were stored at −80° C. until use. After thawing membranes were diluted in assay buffer (50 mM Tris-HCl at pH 7.4, 5 mM MgCl2 and 0.20% BSA) and subjected to Dounce homogenization.
For binding studies, 0.1 mL membrane suspension, corresponding to approximately 6×10^−15 mol receptor, was incubated for 1 h at rt with 0.05 nM ^125I-labeled tracer (11-Tyr somatostatin-14, Perkin-Elmer) and either test compounds in varying concentrations or, for the determination of non-specific binding, 0.001 mM non-labeled somatostatin-14. The incubation was stopped by filtration through GF/B glassfiber filters and washing with ice-cold wash buffer (50 mM Tris-HCl at pH 7.4). The bound radioactivity was measured after application of a scintillation cocktail (Microscint 40) and expressed as disintegrations per minute (dpm).
The receptor concentration was determined in a prior saturation experiment where a fixed, arbitrary amount of membranes was incubated with a concentration range of radio-labeled tracer. This allows estimating the total number of specific binding sites per amount of protein (i.e., Bmax), typically between 1 and 5 pmol/mg.
The concentration of the test compound required to result in half maximal inhibition of binding of the radio-labeled tracer (IC50) was estimated from a concentration-versus-dpm graph. The binding affinity (Ki) was calculated from the IC50 by applying the Cheng-Prussoff equation for single binding sites.

T1 sequence (P35346 whole entry): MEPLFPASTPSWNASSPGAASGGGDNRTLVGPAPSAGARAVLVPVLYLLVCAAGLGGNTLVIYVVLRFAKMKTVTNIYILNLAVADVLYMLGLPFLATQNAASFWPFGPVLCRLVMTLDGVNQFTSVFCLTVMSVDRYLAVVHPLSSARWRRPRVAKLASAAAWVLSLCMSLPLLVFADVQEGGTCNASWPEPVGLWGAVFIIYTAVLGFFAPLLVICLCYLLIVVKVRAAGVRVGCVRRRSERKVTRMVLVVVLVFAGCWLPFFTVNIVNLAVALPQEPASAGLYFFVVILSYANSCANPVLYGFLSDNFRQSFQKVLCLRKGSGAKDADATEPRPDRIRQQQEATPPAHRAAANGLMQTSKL

| Structure (SMILES) | Ki |
| --- | --- |
| CCOc1cc(CN2CCC(Nc3cnc4ccccc4c3)CC2)ccc1OC(F)F [Example 99, [1-(4-difluoromethoxy-3-ethoxy-benzyl)-piperidin-4-yl]-quinolin-3-yl-amine] | 62 nM |
| CCOc1cc(CN2CCC(Nc3ccnc(C)c3)CC2)ccc1OCC(C)C [Example 122, [1-(3-ethoxy-4-isobutoxy-benzyl)-piperidin-4-yl]-(2-methyl-pyridin-4-yl)-amine] | 492 nM |
| CCOc1cc(CN2CCC(Nc3cnc(N)c(C)c3)CC2)cc(OCC)c1-c1ccc(F)cc1 [Example 79, N^5-[1-(2,6-diethoxy-4′-fluoro-biphenyl-4-ylmethyl)-piperidin-4-yl]-3-methyl-pyridine-2,5-diamine] | 25 nM |
